Measurements reported in publication PMC12259270, “Sensory neuron–expressed FGF13 controls nociceptive signaling in diabetic neuropathy models” (The Journal of Clinical Investigation, 2025).
Where “and” joins values, the source holds several entries; their conditions need not be identical. Equal values may be shown once. Residues, ends and D or L forms follow the SMILES beside them. *: point of attachment. Cbz = O=C(OCc1ccccc1)*; OtBu = CC(C)(C)O*

What was measured:
[1] = target: T1, Nav1.7 CTD (Homo sapiens, UniProt Q15858); test: SPR, compound binding to Nav1.7-CTD peptide
T1 construct: purchased Ontores Biotechnologies Co; host or cells: chemical synthesis
T1 sequence (Q15858 1888-1910 limits assumed): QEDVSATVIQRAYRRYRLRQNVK

[2] = Blood pressure and body weight after dosing, C57BL/6 mice; conditions: for Diastolic / MAP / Systolic / Body weight, Pre-dose / Body weight, Terminal: PW164 15 mpk i.d.
[3] = 0h after dosing, individual No. 85, 87, 88, 89, 91, 15 mg/kg
[4] = 2h after dosing, individual No. 85, 87, 88, 89, 91, 15 mg/kg
[5] = 8h after dosing, individual No. 85, 87, 88, 89, 91, 15 mg/kg
[6] = individual No. 85, 87, 88, 89, 91, 15 mg/kg

## COC(=O)[C@@H](NC(=O)[C@H](CCC(=O)OC(C)(C)C)NC(=O)[C@H](CC(C)C)NC(=O)[C@@H]1CCCN1C(=O)OCc1ccccc1)C(C)C [PW164] (Cbz-PLE(OtBu)V-OMe)
[1]
  KD, binding to Nav1.7 CTD: no interaction
[2]; 0h after dosing, Mean
  Diastolic: 81
  MAP: 92
  Systolic: 114
[2]; [3]
  Diastolic: 95 and 77 and 98 and 72 and 63
  MAP: 105 and 81 and 78 and 103 and 92
  Systolic: 120 and 101 and 108 and 118 and 121
[2]; 2h after dosing, Mean
  Diastolic: 74
  MAP: 85
  Systolic: 109
[2]; [4]
  Diastolic: 75 and 64 and 68 and 76 and 85
  MAP: 86 and 76 and 79 and 92 and 93
  Systolic: 107 and 100 and 103 and 125 and 111
[2]; 8h after dosing, Mean
  Diastolic: 81
  MAP: 93
  Systolic: 119
[2]; [5]
  Diastolic: 78 and 94 and 81 and 74 and 76
  MAP: 89 (3×) and 103 and 95
  Systolic: 114 and 121 and 123 and 120 and 117
[2]; Mean
  Body weight, Pre-dose: 25.3 g
  Body weight, Terminal: 24.8 g
[2]; [6]
  Body weight, Pre-dose: 25.7 g and 27.0 g and 24.4 g (2×) and 25.0 g
  Body weight, Terminal: 24.9 g and 26.8 g and 23.9 g and 23.8 g and 24.5 g
[2]; up to 8 hours after injection
  blood pressure or body weight changes: No changes
